The record followed here is ChEMBL document CHEMBL1129166, “Design and synthesis of novel, pseudo C2 symmetric inhibitors of HIV protease” (Bioorg Med Chem Lett, 1996).

The target of test [1] is Human immunodeficiency virus type 1 protease (Human immunodeficiency virus 1, UniProt Q72874). Kind of test: Compound was evaluated for the inhibition of HIV protease.
Test [2] deals with Human immunodeficiency virus type 1 protease (Human immunodeficiency virus 1) (UniProt Q72874). Kind of test: Compound was evaluated for the inhibition of HIV protease at 0.5 uM.

Usually IC50 stands for the midpoint of a concentration-inhibition curve. A low value points to greater potency in that assay. A word on the inhibition: it is the change of the read-out against control, counted positive when it falls. A lower inhibition goes with a response near the control.

Each structure is given as a SMILES string. A value given as a limit tells only on which side of the number the result lay.

With `CC(C)C(NC(=O)OCc1ccccc1)C(=O)N[C@H](CC[C@H](O)[C@H](Cc1ccccc1)NC(=O)C(NC(=O)OCc1ccccc1)C(C)C)Cc1ccccc1` (stereo not given in full), the IC50 in test [1] is over 1 nM. The compound further displayed an inhibition in test [2] of 62%.

On to `CC(C)[C@H](NC(=O)OCc1ccccc1)C(=O)N[C@@H](Cc1ccccc1)CC1(C[C@H](Cc2ccccc2)NC(=O)[C@@H](NC(=O)OCc2ccccc2)C(C)C)CCC(=O)N1`, for which the IC50 in test [1] was determined as 2700 nM.

In test [1], `CC(C)C(NC(=O)OCc1ccccc1)C(=O)N[C@@H](Cc1ccccc1)CC(C[C@H](Cc1ccccc1)NC(=O)C(NC(=O)OCc1ccccc1)C(C)C)[N+](=O)[O-]` (stereo not given in full) registered an IC50 of 1500 nM.

Compound `O=C(N[C@H](CC[C@H](O)[C@H](Cc1ccccc1)NC(=O)c1ccccc1NS(=O)(=O)c1ccccn1)Cc1ccccc1)c1ccccc1NS(=O)(=O)c1ccccn1` yielded an IC50 in test [1] of over 3000 nM.

In test [1], `CC(C)C(NC(=O)OCc1ccccc1)C(=O)N[C@H](CC[C@@H](O)[C@H](Cc1ccccc1)NC(=O)C(NC(=O)OCc1ccccc1)C(C)C)Cc1ccccc1` (stereo not given in full) came in with a half-maximal inhibitory concentration (IC50) of 200 nM.

Consider `O=C(Nc1ccccc1C(=O)N[C@H](CC[C@H](O)[C@H](Cc1ccccc1)NC(=O)c1ccccc1NC(=O)OCc1ccccn1)Cc1ccccc1)OCc1ccccn1`, for which half-maximal inhibition in test [1] (IC50) required 14 nM.

For the compound `CC(C)[C@H](NC(=O)N(C)Cc1ccccn1)C(=O)N[C@@H](Cc1ccccc1)[C@H](O)[C@H](O)[C@H](Cc1ccccc1)NC(=O)[C@@H](NC(=O)N(C)Cc1ccccn1)C(C)C` [A-77003], in test [1], the half-inhibitory concentration (IC50) is over 1 nM. In test [2], this compound displayed an inhibition of 57%.

Turning to `CC(C)(C)OC(=O)N[C@H](CC[C@H](O)[C@H](Cc1ccccc1)NC(=O)OC(C)(C)C)Cc1ccccc1`, in test [1], the IC50 worked out at 380 nM.
